Patent US20220031740A1, “THERAPEUTIC USES OF ATOMIC QUANTUM CLUSTERS” (priority 2018, published 2022)

How the values were obtained:
[1] = tested on: E. Co/i; assay: E. coli survival with Ag5-AQC and DTT; format: cell-based; conditions: DTT at 10 mM
Text: The mechanism responsible is thought to be thiol oxidation. […] The opposite is also true, i.e. Ag5-AQCs rescue E. Co/i from DTT action as expected from to redox agents with opposed action.

[2] = tested on: A549luc orthotopic lung tumour and mediastinal lymph node metastases; assay: A549luc orthotopic lung cancer model metastasizing to mediastinal lymph nodes; format: in vivo
Protocol: (a) Ag5-AQCs cause a reduction in tumour growth in mice with orthotopic brain cancer. Experimental groups: Ag5-AQCs (0.25 mg/kg) and control (no treatment). (b-d) Ag5-AQCs treatment causes a reduction in tumour growth in mice with orthotopic lung cancer. (b) Tumour growth measured in vivo by luminescence (IVIS® Spectrum). Black arrows represent treatment administration times in the study. (c) Luciferase activity quantification measured ex vivo in lung and in mediastinal lymph nodes. (d) Immunohistochemical staining of lung tumour (arrows indicate the tumour nodules). Experimental groups: CDDP (4 mg/kg), Ag5-AQCs (0.25 mg/kg) and control (no treatment). (e) Body weight over the whole experiment. […]
For Ag5-AQCs treatment, mice were divided into three groups (5 animals in each): the first group (control) underwent no treatment, the second group was treated with cisplatin (CDDP) (four single doses, 4 mg/kg) and the third group was treated with Ag5-AQCs (four single doses, 0.25 mg/kg). […] The lung and mediastinal lymph nodes were removed and luminescence was quantified per microgram of protein in body as described in Borrajo et al. (2016). […]
Another limiting factor in cancer treatment is the occurrence of metastasis. […] In this model the occurrence of metastasis to lymph nodes is well established and could be detected 13 days after the injection of tumour cells. […]

[3] = tested on: Nrf2; assay: Nrf2 location by immunofluorescence in HEK293 cells; format: cell-based, human; conditions: HEK293, 30 minutes; Ag5-AQC IC50, NEM 100 μM

With `O[C@H](CS)[C@H](O)CS` (racemic) [DTT, Dithiothreitol] the “E. coli survival, DTT alone” value [1] was “toxic for bacteria”.
With `[NH2][Pt]([NH2])([Cl])[Cl]` [CDDP, Cisplatin] the “luciferase activity in the primary tumour and in the mediastinal lymph nodes (ex vivo)” value ([2]; day 37, vs control mice) was “significant reduction in luciferase activity” and the “tumour size in lung (in vivo bioluminescence)” value ([2]; intravenously days 20, 22, 24, 26, CDDP 4 mg/kg, Ag5-AQC 0.25 mg/kg, 37 days, vs control) was “significant reduction in tumour size”.
In the case of `CCN1C(=O)C=CC1=O` [NEM, N-ethylmaleimide], the “Nrf2 staining and nuclear location” value [3] is reported as “increased the nuclear accumulation of Nrf2”.
